Assay results reported in patent US20230310474A1, “CORONAVIRUS TREATMENT COMPOSITION AND METHOD” (Cleveland State University, priority 2022, published 2023).

How the values were obtained:
HCoV-OC43 [1] = assay: microbe, parasite or virus in culture; type: cell-based
SARS-CoV-2 [2] = assay: SARS-CoV-2 high-throughput screen (HTS) cytopathic effect assay in Vero 76 cells; type: cell-based; conditions: MOI 0.1, 48 hours
THP-1 cells [3] = assay: MTS cell viability assay in THP-1 cells; type: cell-based, human; conditions: all tested concentrations
Description: FIGS. 3A-J illustrate that Neu5Ac2en-OAcOMe exerts anti-viral effects in human cell models. […] (upper) or 37° C. (lower). Intracellular viral RNA was analyzed by RT-qPCR. FIGS. 3B-D show HCoV-OC43 (MOI = 2) infected THP-1 cells were treated with a gradient concentration of Neu5Ac2en-OAcOMe for 72 hours. Intracellular viral RNA (FIG. 3B, upper), extracellular progeny virus yields (FIG. 3B, lower and FIG. 3C) and intracellular nucleocapsid (FIG. 3D) were analyzed by RT-qPCR, TCID50 assay and immunoblot, respectively. The inhibitory and cytotoxic curves (3C) were obtained using the data from the lower panel in FIG. 3B and cell viability measured by MTS assay. CellTiter 96® AQueous One Solution Cell Proliferation Assay (MTS) (Promega, G3582) was performed as instructed in the kit manual. […] Sialylation was detected with biotin-MAA and biotin-SNA lectins. […] Nucleocapsid in the cell lysates was measured by western blot. […] The levels of intracellular nucleocapsid were analyzed by immunofluorescence (48 hours post-infection). […] ND, not detected. […]
(§1) To determine whether Neu5Ac2en-OAcOMe affects post-entry steps of the viral life cycle, THP-1 cells were infected with HCoV-OC43 for two hours and then treated the cells with Neu5Ac2en-OAcOMe. Intracellular viral RNA and viral titers were quantified in the cell culture supernatants 72 hours post-infection.

Neu1 = target: T1, Neu1 (Homo sapiens, UniProt Q99519); assay: Neuraminidase (sialidase) activity assay with 4-MU-NANA in HEK293T cells transfected with Neu1; type: cell-based
T1 construct: expressed in transfected cells; host or cells: HEK293T

SARS-CoV-2 [4] = type: in vivo, K18-hACE2 transgenic mice; conditions: K18-hACE2 mice, IP on days 0-4, 1 x 10^4 PFU
HCoV-OC43 [5] = assay: HCoV-OC43 binding and entry assay in pretreated THP-1 cells (4° C. or 37° C.); type: cell-based; conditions: THP-1 cells pretreated two hours; 4° C. one hour or 37° C. two hours post-infection
Description: Whether Neu5Ac2en-OAcOMe acts on the virus binding and entry steps of the viral life cycle was evaluated. THP-1 cells were treated with Neu5Ac2en-OAcOMe for two hours and then infected the cells with HCoV-OC43 at 4° C. or 37° C. Cells incubated at 4° C. were collected one hour post-infection and cells incubated at 37° C. were collected two hours post-infection. Intracellular viral RNA was quantified by RT-qPCR.

HCoV-OC43 [6] = assay: HCoV-OC43 replication in epithelial cell lines (HEK293T, HeLa, BSC-1); type: cell-based
Description: Cells were fixed with 4% paraformaldehyde in phosphate buffered saline (PBS) at room temperature for 15 min and then permeabilized with 1% Triton X-100 in PBS at room temperature for 15 min. Immunofluorescence staining was performed. Images were acquired with an EVOS FL Auto Imaging System (Thermo Fisher Scientific).
Next, it was tested whether the observed efficacy of Neu5Ac2en-OAcOMe was not restricted to THP-1 cells. The efficacy of Neu5Ac2en-OAcOMe was evaluated in three epithelial cell lines (HEK293T cells, HeLa cells and BSC-1 cells). […] Therefore, cytosolic sialidase inhibitors represent a potential treatment for coronavirus infections.

THP-1 cells [7] = assay: Cytokine production in THP-1 cells (human cytokine bead array); type: cell-based
Description: Mouse blood samples were obtained at indicated time points, and cytokines in the serum were determined using a mouse cytokine bead array designed for inflammatory cytokines (552364, BD Biosciences, San Jose, CA). Human cytokines in cell culture derived supernatants were determined using a human cytokine bead array designed for inflammatory cytokines (551811, BD Biosciences).
as §1

HCoV-OC43 [8] = tested on: HCoV-OC43
[9] = Intracellular conversion of membrane-permeable inhibitor; conditions: upon entering into the cells
human sialidases = conditions: cited from earlier work
SARS-CoV-2 [10] = conditions: several clinical trials; cited from earlier work
[11] = HEK293T cells with Neu1 expression vector, 30 min at room temperature
[12] = HEK293T cells, HeLa cells and BSC-1 cells

For `CC1(C)Cc2c(sc(NC(=S)NC(=O)c3ccccc3)c2C(=O)O)CO1` [CID-1067700, reference compound], the HCoV-OC43 release (HCoV-OC43 [1]) was “moderately inhibited”.
For `COC(=O)C1=CC(OC(C)=O)[C@@H](NC(C)=O)C([C@H](OC(C)=O)[C@@H](COC(C)=O)OC(C)=O)O1` (stereo partly drawn) [Neu5Ac2en-OAcOMe], the N protein levels (HCoV-OC43 [1]) was “significantly decreased”, the “antiviral activity against HCoV-OC43 (viral transcripts and viral titer)” value (“antiviral activity against HCoV-OC43” for short) (HCoV-OC43 [1]) was “showed the highest antiviral activities” and the “sialylation of HCoV-OC43 N protein” value (HCoV-OC43 [1]) was “increased sialylation”. For the same compound, the “viral replication at the level of viral transcripts and viral titers” value (HCoV-OC43 [1]) was “significantly decreased viral replication”, the IC50 (HCoV-OC43 [1]; Betacoronavirus 1, OC43, THP-1, read-out: IC50 of viral replication (viral titers in cell culture supernatants)) was 13.7 µM and the “protection activity (cell viability post SARS-CoV-2 infection)” value (“protection activity” below) (SARS-CoV-2 [2]) was “showed the highest protection activities”. For the same compound, the “toxicity in MTS assay” value (THP-1 cells [3]) was “non-toxic at all tested concentrations”, the “cell surface sialidase activity” value (Neu1; [11]) was “did not affect” and the “total sialidase activity (total cell lysate)” value (Neu1; [11]) was “significantly decreased”. For the same compound, the SARS-CoV-2-induced mortality (SARS-CoV-2 [4]) was “significant protection”, the body weight loss (SARS-CoV-2 [4]) was “significant protection” and the “virus binding and entry steps (intracellular viral RNA)” value (HCoV-OC43 [5]) was “did not affect virus binding and entry steps”. The “viral replication by immunofluorescence staining for HCoV-OC43-N protein” value (HCoV-OC43 [6]; BSC-1 cells, MOI 0.1, 48 hours post-infection) was “effectively suppressed viral replication”, the “N protein levels in epithelial cell lines” value (HCoV-OC43 [6]; [12]) was “significantly decreased” and the “viral replication in epithelial cell lines” value (HCoV-OC43 [6]; [12]) was “inhibited viral replication in all three cell lines”. For the same compound, the cytokine production (THP-1 cells [7]) was “did not induce cytokine production”, the body weight (HCoV-OC43 [8]; after HCoV-OC43 infection, 20 mg/kg IP) was “significantly lower in vehicle-treated mice than in Neu5Ac2en-OAcOMe-treated mice” and the “brain and lung tissue damage (H&E staining)” value (HCoV-OC43 [8]; day 5 post-infection) was “improved”. For the same compound, the “serum IL-6 level” value (HCoV-OC43 [8]; day 5 post-infection) was “substantial decrease”, the “serum TNF-α level” value (HCoV-OC43 [8]; day 5 post-infection) was “substantial decrease” and the “HCoV-OC43 viral replication in the lungs, blood and brain” value (HCoV-OC43 [8]; day 5 post-infection, 20 mg/kg IP) was “suppression of HCoV-OC43 viral replication”. For the same compound, the “toxic signs and symptoms” value (HCoV-OC43 [8]; in vivo, all treatment period) was “No toxic signs and symptoms were observed”, the survival (HCoV-OC43 [8]; seven-day-old C57BL/6 pups, 20 mg/kg IP, 10 days observation) was 50% and the intracellular conversion [9] was “readily converted to the corresponding Neu5Ac2en intracellularly”.
With `O=C(CO)N[C@H]1[C@H]([C@H](O)[C@H](O)CO)OC(C(=O)O)=C[C@@H]1O` [Neu5Gc2en, reference compound] the “antiviral activity against HCoV-OC43” value (HCoV-OC43 [1]) was “did not inhibit HCoV-OC43 replication”, the “protection activity” value (SARS-CoV-2 [2]) was “could not protect” and the “cell surface sialidase activity” value (Neu1; [11]) was “targets sialidase on cell surface”.
With `CCOC(=O)C1=C[C@@H](OC(CC)CC)[C@H](NC(C)=O)[C@@H](N)C1` [oseltamivir] the “antiviral activity against HCoV-OC43” value (HCoV-OC43 [1]) was “did not show inhibitory activity”, the “protection activity” value (SARS-CoV-2 [2]) was “did not show inhibitory activity” and the “sialidase activity in the cytoplasm” value (Neu1) was “only slightly decreased”. The “effect on human sialidases” value (human sialidases) was “almost no effect” and the “efficacy in treating SARS-CoV-2 infection” value (SARS-CoV-2 [10]) was “no positive outcomes were observed”.
For `CC(=O)N[C@H]1[C@H]([C@H](O)[C@H](O)CO)OC(C(=O)O)=C[C@@H]1N=C(N)N` [zanamivir], the “antiviral activity against HCoV-OC43” value (HCoV-OC43 [1]) is given as “did not show inhibitory activity”, the “protection activity” value (SARS-CoV-2 [2]) is given as “did not show inhibitory activity” and the “effect on human sialidases” value (human sialidases) is given as “almost no effect”.
